This note sets out measurements from patent publication US7517874B2 (priority 2007, dated 2009).

Structures are written as SMILES. Read-outs that look alike come from different tables or passages of the source.

One may read the EC50 as the concentration giving half of the maximal effect.

Assay [1] deals with human CB1 receptor (hCB1) (Homo sapiens, UniProt P21554). Kind of assay: cell-based. The format is cell-based. Summed up:
(§1)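 First, cells in IBMX-containing HEPES-buffered HBSS are raised to elevated cAMP with 2-8 μM NKH-477 for 30 min. Data are normalised to the forskolin and forskolin + 1 μM CP55,940 controls.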

A further assay has as its target T1, rat CB2 receptor (rCB2) (Rattus norvegicus, UniProt Q9QZN9).
T1 sequence (Q9QZN9 1-360): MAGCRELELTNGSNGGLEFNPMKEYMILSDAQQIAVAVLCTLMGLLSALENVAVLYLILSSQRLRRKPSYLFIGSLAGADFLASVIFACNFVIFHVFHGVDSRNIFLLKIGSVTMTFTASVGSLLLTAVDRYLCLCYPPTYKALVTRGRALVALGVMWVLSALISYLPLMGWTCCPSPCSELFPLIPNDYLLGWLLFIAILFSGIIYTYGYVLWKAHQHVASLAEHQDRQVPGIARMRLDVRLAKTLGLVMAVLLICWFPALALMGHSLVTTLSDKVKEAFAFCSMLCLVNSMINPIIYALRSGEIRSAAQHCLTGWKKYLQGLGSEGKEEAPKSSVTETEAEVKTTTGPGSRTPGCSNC
Kind of assay: cell-based. The format is cell-based. The following applies: for +/− RCB2: agonist or inverse agonist at rCB2. A digest of the protocol: as §1

Where [2] appears, read: groups >100 nM-10 μM and >10 μM, cAMP, CHO-K1 hCB1, read-out: EC50 HCB1.

Sequence of human CB1 receptor (hCB1) (P21554 whole entry): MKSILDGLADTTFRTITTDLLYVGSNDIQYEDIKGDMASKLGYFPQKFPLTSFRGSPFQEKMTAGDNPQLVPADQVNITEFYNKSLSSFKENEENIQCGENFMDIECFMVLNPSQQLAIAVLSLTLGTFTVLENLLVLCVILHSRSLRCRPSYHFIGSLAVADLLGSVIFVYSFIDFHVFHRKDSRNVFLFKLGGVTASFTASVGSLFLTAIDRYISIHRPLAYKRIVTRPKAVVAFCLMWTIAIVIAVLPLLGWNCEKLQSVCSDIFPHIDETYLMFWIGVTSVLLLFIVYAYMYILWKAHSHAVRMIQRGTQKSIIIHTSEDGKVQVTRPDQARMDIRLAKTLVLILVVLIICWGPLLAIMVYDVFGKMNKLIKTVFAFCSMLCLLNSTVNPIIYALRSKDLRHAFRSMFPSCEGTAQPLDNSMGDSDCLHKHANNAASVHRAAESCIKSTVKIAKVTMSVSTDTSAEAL

On to `CNC(=O)[C@@H](NC(=O)c1nc(-c2ccc3ccccc3c2)n2c1CN(C)CCC2)C(C)(C)C` [Compound 380, (S)-N-(3,3-dimethyl-1-(methylamino)-1-oxobutan-2-yl)-8-methyl-3-(naphthalen-2-yl)-6,7,8,9-tetrahydro-5H-imidazo[1,5-a][1,4]diazepine-1-carboxamide], for which the concentration for a half-maximal effect (EC50) in assay [1] was above 10000 nM. For the same molecule, the “+/− RCB2” value at rat CB2 receptor (rCB2) is recorded as “−”.

Take `CN1CCCn2c(-c3ccccc3)nc(C(=O)N[C@H](C(=O)NC3CCC3)C(C)(C)C)c2C1` [Compound 480, (S)-N-(1-(cyclobutylamino)-3,3-dimethyl-1-oxobutan-2-yl)-8-methyl-3-phenyl-6,7,8,9-tetrahydro-5H-imidazo[1,5-a][1,4]diazepine-1-carboxamide]: the EC50 (in assay [1]; at rat CB2 receptor (rCB2)) was above 10000 nM in each case.

`CC(C)NC(=O)N1CCn2c(-c3ccccc3)nc(C(=O)NC3C4(C)CCC(C4)C3(C)C)c2C1` (stereo not drawn) [Compound 171, N7-isopropyl-3-phenyl-N1-(1,3,3-trimethylbicyclo[2.2.1]heptan-2-yl)-5,6-dihydroimidazo[1,5-a]pyrazine-1,7(8H)-dicarboxamide] showed an EC50 in assay [1] above 10000 nM. Also, on rat CB2 receptor (rCB2), the “+/− RCB2” value is “−”.

Take `COC(=O)N1CCn2c(-c3ccccc3)nc(C(=O)NN3CCCCC3)c2C1` [Compound 182, methyl 3-phenyl-1-(piperidin-1-ylcarbamoyl)-5,6-dihydroimidazo[1,5-a]pyrazine-7(8H)-carboxylate]: the EC50 in assay [1] (setting [2]) was above 10000 nM. Also, the “+/− RCB2” value on rat CB2 receptor (rCB2) was “−”.

Consider `CNC(=O)[C@@H](NC(=O)c1nc(-c2ccc(F)cc2)n2c1CNCC2)C(C)(C)C` [Compound 6, (S)-N-(3,3-dimethyl-1-(methylamino)-1-oxobutan-2-yl)-3-(4-fluorophenyl)-5,6,7,8-tetrahydroimidazo[1,5-a]pyrazine-1-carboxamide], for which the EC50 (in assay [1]; on rat CB2 receptor (rCB2)) was above 10000 nM throughout.

`CNC(=O)[C@@H](NC(=O)c1nc(-c2cc(F)ccc2F)n2c1CN(C)CC2)C(C)(C)C` [Compound 250, (S)-3-(2,5-difluorophenyl)-N-(3,3-dimethyl-1-(methylamino)-1-oxobutan-2-yl)-7-methyl-5,6,7,8-tetrahydroimidazo[1,5-a]pyrazine-1-carboxamide]: the 50% effective concentration (EC50) (in assay [1]; on rat CB2 receptor (rCB2)) was above 10000 nM in each case.

`CNC(=O)[C@@H](NC(=O)c1nc(-c2ccc(Cl)cc2)n2c1CNCC2)C(C)(C)C` [Compound 9, (S)-3-(4-chlorophenyl)-N-(3,3-dimethyl-1-(methylamino)-1-oxobutan-2-yl)-5,6,7,8-tetrahydroimidazo[1,5-a]pyrazine-1-carboxamide]: in assay [1], the concentration giving a half-maximal response (EC50) was above 10000 nM. For the same molecule, on rat CB2 receptor (rCB2), the “+/− RCB2” value is on record as “−”.

`CCc1nc(C(=O)N[C@H](C(=O)NC)C(C)(C)C)c2n1CCCN(C)C2` [Compound 492, (S)-N-(3,3-dimethyl-1-(methylamino)-1-oxobutan-2-yl)-3-ethyl-8-methyl-6,7,8,9-tetrahydro-5H-imidazo[1,5-a][1,4]diazepine-1-carboxamide] came in with an EC50 in assay [1] above 10000 nM. For the same molecule, the “+/− RCB2” value at rat CB2 receptor (rCB2) was “−”.

In turn, `CNC(=O)[C@@H](NC(=O)c1nc(-c2ccccc2)n2c1CN(Cc1cnn(C)c1)CC2)C(C)(C)C` [Compound 66, (S)-N-(3,3-dimethyl-1-(methylamino)-1-oxobutan-2-yl)-7-((1-methyl-1H-pyrazol-4-yl)methyl)-3-phenyl-5,6,7,8-tetrahydroimidazo[1,5-a]pyrazine-1-carboxamide] yielded a 50% effective concentration (EC50) in assay [1] above 10000 nM. Also, at rat CB2 receptor (rCB2), the “+/− RCB2” value is on record as “+”.

Regarding `CNC(=O)[C@H](CC(C)C)NC(=O)c1nc(-c2ccc(F)cc2)n2c1CN(C)CCC2` [Compound 530, (S)-3-(4-fluorophenyl)-8-methyl-N-(4-methyl-1-(methylamino)-1-oxopentan-2-yl)-6,7,8,9-tetrahydro-5H-imidazo[1,5-a][1,4]diazepine-1-carboxamide], the EC50 in assay [1] is above 10000 nM. Besides, at rat CB2 receptor (rCB2), the “+/− RCB2” value is given as “+”.

As to `CNC(=O)[C@@H](NC(=O)c1nc(-c2cn[nH]c2)n2c1CN(C)CCC2)C(C)(C)C` [Compound 432, (S)-N-(3,3-dimethyl-1-(methylamino)-1-oxobutan-2-yl)-8-methyl-3-(1H-pyrazol-4-yl)-6,7,8,9-tetrahydro-5H-imidazo[1,5-a][1,4]diazepine-1-carboxamide], the EC50 in assay [1] is above 10000 nM. Moreover, on rat CB2 receptor (rCB2), the “+/− RCB2” value is recorded as “+”.

Turning to `CNC(=O)[C@H](CC(C)(C)C)NC(=O)c1nc(-c2cc(F)c(F)cc2F)n2c1CN(C)CCC2` [Compound 555, (S)-N-(4,4-dimethyl-1-(methylamino)-1-oxopentan-2-yl)-8-methyl-3-(2,4,5-trifluorophenyl)-6,7,8,9-tetrahydro-5H-imidazo[1,5-a][1,4]diazepine-1-carboxamide], the “+/− HCB1” value in assay [1] (agonist or inverse agonist at hCB1) is recorded as “+”. The “+/− RCB2” value at rat CB2 receptor (rCB2) is listed as “+”.

As to `Cc1noc([C@@H](NC(=O)c2nc(-c3ccccc3)n3c2CNCC3)C(C)(C)C)n1` [Compound 282, (S)-N-(2,2-dimethyl-1-(3-methyl-1,2,4-oxadiazol-5-yl)propyl)-3-phenyl-5,6,7,8-tetrahydroimidazo[1,5-a]pyrazine-1-carboxamide], the EC50 (in assay [1]; on rat CB2 receptor (rCB2)) was above 10000 nM each time.

`CNC(=O)[C@@H](NC(=O)c1nc(-c2cc3ccccc3o2)n2c1CN(C)CCC2)C(C)(C)C` [Compound 351, (S)-3-(benzofuran-2-yl)-N-(3,3-dimethyl-1-(methylamino)-1-oxobutan-2-yl)-8-methyl-6,7,8,9-tetrahydro-5H-imidazo[1,5-a][1,4]diazepine-1-carboxamide] showed a concentration for a half-maximal effect (EC50) in assay [1] above 10000 nM. In addition, the “+/− RCB2” value on rat CB2 receptor (rCB2) is given as “+”.

In assay [1], `CNC(=O)[C@@H](NC(=O)c1nc(-c2cc(C(F)(F)F)ccc2F)n2c1CN(C)CC2)C(C)(C)C` [Compound 245, (S)-N-(3,3-dimethyl-1-(methylamino)-1-oxobutan-2-yl)-3-(2-fluoro-5-(trifluoromethyl)phenyl)-7-methyl-5,6,7,8-tetrahydroimidazo[1,5-a]pyrazine-1-carboxamide] returned a 50% effective concentration (EC50) above 10000 nM. The “+/− RCB2” value on rat CB2 receptor (rCB2) is on record as “−”.

For the molecule `CCCC(CO)NC(=O)c1nc(-c2ccccc2)n2c1CN(C)CC2` (stereo not drawn) [Compound 233, N-(1-hydroxypentan-2-yl)-7-methyl-3-phenyl-5,6,7,8-tetrahydroimidazo[1,5-a]pyrazine-1-carboxamide], the concentration giving a half-maximal response (EC50) (in assay [1]; on rat CB2 receptor (rCB2)) was above 10000 nM in each case.

With `Cc1ccc(-c2nc(C(=O)N[C@H](c3nc(C)no3)C(C)(C)C)c3n2CCCNC3)c(F)c1` [Compound 520, (S)-N-(2,2-dimethyl-1-(3-methyl-1,2,4-oxadiazol-5-yl)propyl)-3-(2-fluoro-4-methylphenyl)-6,7,8,9-tetrahydro-5H-imidazo[1,5-a][1,4]diazepine-1-carboxamide], in assay [1], the EC50 was above 10000 nM. The “+/− RCB2” value on rat CB2 receptor (rCB2) is recorded as “−”.

In assay [1], `CNC(=O)[C@@H](NC(=O)c1nc(/C=C/COC)n2c1CN(C)CC2)C(C)(C)C` [Compound 264, (S,E)-N-(3,3-dimethyl-1-(methylamino)-1-oxobutan-2-yl)-3-(3-methoxyprop-1-enyl)-7-methyl-5,6,7,8-tetrahydroimidazo[1,5-a]pyrazine-1-carboxamide] came in with an EC50 above 10000 nM. At rat CB2 receptor (rCB2), the “+/− RCB2” value is given as “+”.

The molecule `CNC(=O)[C@@H](NC(=O)c1nc(C=C(C)C)n2c1CN(C)CC2)C(C)(C)C` [Compound 257, (S)-N-(3,3-dimethyl-1-(methylamino)-1-oxobutan-2-yl)-7-methyl-3-(2-methylprop-1-enyl)-5,6,7,8-tetrahydroimidazo[1,5-a]pyrazine-1-carboxamide] came in with an EC50 in assay [1] above 10000 nM. Moreover, on rat CB2 receptor (rCB2), the “+/− RCB2” value was “+”.

As for `CN1CCn2c(-c3ccc(Cl)cc3F)nc(C(=O)N3CCC4(CCN(C)C4=O)CC3)c2C1` [Compound 221, 8-(3-(4-chloro-2-fluorophenyl)-7-methyl-5,6,7,8-tetrahydroimidazo[1,5-a]pyrazine-1-carbonyl)-2-methyl-2,8-diazaspiro[4.5]decan-1-one], the half-maximal effective concentration (EC50) (in assay [1]; on rat CB2 receptor (rCB2)) was above 10000 nM in each case.

For `CNC(=O)[C@@H](NC(=O)c1nc(-c2ccc(F)c(C(=O)O)c2)n2c1CN(C)CCC2)C(C)(C)C` [Compound 411], the EC50 (in assay [1]; at rat CB2 receptor (rCB2)) was above 10000 nM in each case.

In the case of `CNC(=O)c1ccccc1NC(=O)c1nc(-c2ccc(Cl)cc2F)n2c1CN(C)CC2` [Compound 217], the 50% effective concentration (EC50) in assay [1] (setting [2]) is above 10000 nM; at rat CB2 receptor (rCB2) (groups >100 nM-10 μM and >10 μM, cAMP, CHO-K1 rCB2, read-out: EC50 RCB2) it was above 10000 nM.

In the case of `CNC(=O)[C@@H](NC(=O)c1nc(-c2cc(F)cc(F)c2)n2c1CN(C)CCC2)C(C)(C)C` [Compound 331, (S)-3-(3,5-difluorophenyl)-N-(3,3-dimethyl-1-(methylamino)-1-oxobutan-2-yl)-8-methyl-6,7,8,9-tetrahydro-5H-imidazo[1,5-a][1,4]diazepine-1-carboxamide], the half-maximal effective concentration (EC50) in assay [1] is above 10000 nM. Further, the “+/− RCB2” value on rat CB2 receptor (rCB2) was “+”.

Consider `CC(C)(C)OC(=O)N1CCn2c(-c3ccccc3)nc(C(=O)NCC3CCOCC3)c2C1` [Compound 38, tert-butyl 3-phenyl-1-((tetrahydro-2H-pyran-4-yl)methylcarbamoyl)-5,6-dihydroimidazo[1,5-a]pyrazine-7(8H)-carboxylate], for which the half-maximal effective concentration (EC50) in assay [1] (setting [2]) is above 10000 nM. Moreover, the “+/− RCB2” value at rat CB2 receptor (rCB2) was “−”.
